Entries after “also recorded” stand apart in the source; their conditions may differ. Read-outs that look alike come from different tables or passages of the source.
Experiment: Comparison of solubility of the precursor compound according to the kind of reaction solvent (observation with the naked eye)
Assay type: physicochemical
Conditions: for State of the solution when the temperature dropped to room temperature: t-amyl alcohol, then dropped to room temperature
Procedure: The solubility of FP-CIT, FDG, FLT, FMISO, and FC119S at room temperature and at 60° C. according to the different solvents of methyl 2-hydroxyisobutyrate solvent of the present invention and t-amyl alcohol solvent of the prior art (KR 10-0789847) was investigated.

[1] = reaction solvent methyl 2-hydroxyisobutyrate (present invention), precursor amount 4-20 mg, naked eye
[2] = reaction solvent t-amyl alcohol (KR 10-0789847), precursor amount 4-20 mg, naked eye
[3] = reaction solvent t-amyl alcohol (KR 10-0789847), room temperature, precursor amount 4-20 mg, naked eye
[4] = reaction solvent methyl 2-hydroxyisobutyrate (present invention), room temperature, precursor amount 4-20 mg, naked eye

| Solubility Room temperature | State of the solution after cooling to room temperature | SMILES | Solubility 60° C. [1] | Solubility Room temperature (reaction solvent methyl 2-hydroxyisobutyrate (present invention), room temperature, precursor amount 4-20 mg, naked eye, p-toluenesulfonate) | Solubility 60° C. [2] | Solubility Room temperature [3] | State of the solution when the temperature dropped to room temperature (dissolved at 60° C.) | Solubility Room temperature [4] | State of the solution after cooling to room temperature (methyl-2-hydroxyisobutyrate, dissolved at 60° C., then cooled to room temperature) |
| --- | --- | --- | --- | --- | --- | --- | --- | --- | --- |
| – | – | COC(=O)[C@H]1[C@@H](c2ccc(I)cc2)C[C@@H]2CC[C@H]1[N+]21CCC1.Cc1ccc(S(=O)(=O)[O-])cc1 [FP-CIT, (1′R, 2′S, 3′S, 5′S)-3′-(4-iodophenyl)-2′-(methoxycarbonyl)spiro[azetidine-1,8′-bicyclo[3,2,1]octan]-1-ium p-toluenesulfonate] | dissolved | completely dissolved | dissolved | undissolved | precipitated again as solids | – | – |
| undissolved | remained as a solution | Cc1cn([C@H]2C[C@H](OS(=O)(=O)c3ccc([N+](=O)[O-])cc3)[C@@H](COC(c3ccccc3)(c3ccccc3)c3ccccc3)O2)c(=O)n(C(=O)OC(C)(C)C)c1=O [FLT, 3-N-Boc-5′-O-trityl-3′-O-nosyl-thymidine] | – | – | – | – | – | – | – |
| – | – | CC(=O)OC[C@H]1O[C@@H](OC(C)=O)[C@@H](OS(=O)(=O)C(F)(F)F)[C@@H](OC(C)=O)[C@@H]1OC(C)=O [FDG, 1,3,4,6-tetra-O-acetyl-2-O-trifluoro-methanesulfonyl-beta-D-mannopyranose] | dissolved | – | dissolved | undissolved | precipitated again as solids | dissolved | – |
| – | – | CN(C(=O)OC(C)(C)C)c1ccc(-c2nc3ccc(OC[C@@H](COS(=O)(=O)c4ccc([N+](=O)[O-])cc4)OC4CCCCO4)cc3s2)cn1 (some centres unmarked) [FC119S] | dissolved | – | not dissolved; also recorded: undissolved | undissolved | – | undissolved | remained as a solution |
